Tests used:
[1] = target: T1, 5-hydroxytryptamine receptor 2C (Homo sapiens, UniProt P28335); assay: Affinity for 5-hydroxytryptamine 2C receptor
T1 sequence (P28335 whole entry): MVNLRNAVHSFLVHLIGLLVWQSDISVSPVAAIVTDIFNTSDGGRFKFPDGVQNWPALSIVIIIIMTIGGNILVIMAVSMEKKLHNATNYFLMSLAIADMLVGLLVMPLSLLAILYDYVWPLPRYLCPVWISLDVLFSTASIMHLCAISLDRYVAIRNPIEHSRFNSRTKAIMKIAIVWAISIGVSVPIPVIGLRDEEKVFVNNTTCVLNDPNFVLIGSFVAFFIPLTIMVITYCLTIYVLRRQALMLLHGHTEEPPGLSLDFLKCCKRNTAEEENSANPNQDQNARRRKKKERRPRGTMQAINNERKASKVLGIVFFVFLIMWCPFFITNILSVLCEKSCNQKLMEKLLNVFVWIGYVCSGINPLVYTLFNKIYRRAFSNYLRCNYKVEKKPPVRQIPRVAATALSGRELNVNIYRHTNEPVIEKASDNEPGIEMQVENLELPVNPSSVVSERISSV

[2] = target: Serotonin 2 receptors; 5-HT2a & 5-HT2c (Homo sapiens) (UniProt P28223+P28335); assay: Relative affinity for 5-HT2C over 5-HT2A receptors; assay type: protein assay
[3] = target: T2, 5-hydroxytryptamine receptor 2A (Homo sapiens, UniProt P28223); assay: Affinity for 5-hydroxytryptamine 2A receptor
[4] = target: T3, 5-hydroxytryptamine receptor 2C (Homo sapiens) (UniProt P28335); assay: Binding affinity towards 5-hydroxytryptamine 2C receptor was determined at a concentration of 0.00001 mol/L
T3 sequence (whole entry): T1 sequence (P28335 whole entry)

[5] = target: T2, 5-hydroxytryptamine receptor 2A; assay: Binding affinity towards 5-hydroxytryptamine 2A receptor was determined at a concentration of 0.00001 mol/L
[6] = target: T3, 5-hydroxytryptamine receptor 2C (Homo sapiens); assay: Binding affinity towards 5-hydroxytryptamine 2C receptor was determined at a concentration of 0.000001 mol/L
[7] = target: T2, 5-hydroxytryptamine receptor 2A; assay: Binding affinity towards 5-hydroxytryptamine 2A receptor was determined at a concentration of 0.000001 mol/L

Sequence of Serotonin 2 receptors; 5-HT2a & 5-HT2c (Homo sapiens) (P28223 whole entry, looked up, one chain of several): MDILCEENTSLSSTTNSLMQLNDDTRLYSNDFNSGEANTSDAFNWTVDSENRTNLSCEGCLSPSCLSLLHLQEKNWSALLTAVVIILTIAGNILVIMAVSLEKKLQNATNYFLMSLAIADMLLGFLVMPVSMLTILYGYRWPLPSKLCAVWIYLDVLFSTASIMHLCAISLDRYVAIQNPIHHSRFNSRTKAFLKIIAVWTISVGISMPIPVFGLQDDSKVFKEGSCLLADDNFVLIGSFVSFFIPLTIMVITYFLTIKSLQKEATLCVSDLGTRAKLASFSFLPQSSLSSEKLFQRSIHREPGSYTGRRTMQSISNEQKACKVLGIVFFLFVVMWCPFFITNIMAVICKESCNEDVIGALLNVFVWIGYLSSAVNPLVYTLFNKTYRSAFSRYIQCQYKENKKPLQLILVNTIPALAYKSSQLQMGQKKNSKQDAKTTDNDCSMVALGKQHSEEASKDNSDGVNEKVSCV
T2 sequence (P28223 whole entry): as the sequence (P28223 whole entry, looked up, one chain of several) above

Row | SMILES | Ki [1] [nM] | Ratio [2] | Ki [3] [nM] | inhibition [4] [%] | inhibition [5] [%] | inhibition [6] [%] | inhibition [7] [%]
1 | COc1ccc(Cc2c(N)nc(SCCN3CCN(Cc4ccc(C)cc4)CC3)nc2N)cc1 | 300 | 0.04 | 12.5 | – | – | – | –
2 | Nc1nc(SCCN2CCN(Cc3ccccc3Cl)CC2)nc(N)c1Cc1ccccc1Cl | 8.7 | 1.4 | 11.8 | – | – | – | –
3 | Nc1cc(N)nc(SCCN2CCN(Cc3ccc([N+](=O)[O-])cc3)CC2)n1 | – | – | – | 77 | 89 | – | –
4 | COc1ccc(Cc2c(N)nc(SCCN3CCN(Cc4ccccc4Cl)CC3)nc2N)cc1 | 10.4 | 0.6 | 5.7 | – | – | – | –
5 | COc1ccccc1Cc1c(N)nc(SCCN2CCN(Cc3cccc(C(F)(F)F)c3)CC2)nc1N | 5.5 | 11 | 60.4 | – | – | – | –
6 | Nc1nc(SCCN2CCN(Cc3ccc([N+](=O)[O-])cc3)CC2)nc(N)c1Cc1ccccc1 | – | – | – | – | – | 67 | 99
7 | Nc1nc(SCCN2CCN(Cc3ccc([N+](=O)[O-])cc3)CC2)nc(N)c1CC1CCCCC1 | – | – | – | 32 | 10 | – | –
8 | COc1cccc(Cc2c(N)nc(SCCN3CCN(Cc4cccc(C(F)(F)F)c4)CC3)nc2N)c1 | 4.9 | 9.1 | 44.6 | – | – | – | –
9 | Nc1nc(SCCN2CCN(Cc3cccc(C(F)(F)F)c3)CC2)nc(N)c1Cc1ccccc1O | 6.2 | 15 | 93.2 | – | – | – | –
10 | CC(C)Oc1ccccc1Cc1c(N)nc(SCCN2CCN(Cc3cccc(C(F)(F)F)c3)CC2)nc1N | 8.6 | 14 | 121 | – | – | – | –
11 | Nc1nc(SCCN2CCN(Cc3ccccc3C(F)(F)F)CC2)nc(N)c1Cc1ccccc1 | 21.4 | 2.9 | 61.1 | – | – | – | –
12 | Nc1nc(SCCN2CCN(Cc3ccccc3Cl)CC2)nc(N)c1Cc1ccccc1O | 5.5 | 4.2 | 22.8 | – | – | – | –
13 | COc1ccccc1Cc1c(N)nc(SCCN2CCN(Cc3ccccc3C(F)(F)F)CC2)nc1N | 7.7 | 6.2 | 47.7 | – | – | – | –
14 | Nc1cc(N)nc(SCCCN2CCN(Cc3ccc([N+](=O)[O-])cc3)CC2)n1 | – | – | – | 21 | 54 | – | –
15 | Nc1nc(SCCN2CCN(Cc3ccccc3Cl)CC2)nc(N)c1Cc1ccccc1 | 11.9 | 1.5 | 18.3 | – | – | – | –
16 | COc1ccc(Cc2c(N)nc(SCCN3CCN(Cc4ccccc4C)CC3)nc2N)cc1 | 16.4 | 0.7 | 11.5 | – | – | – | –
17 | COc1cc(Cc2c(N)nc(SCCN3CCN(Cc4ccccc4Cl)CC3)nc2N)cc(OC)c1OC | 18.3 | 0.2 | 4.3 | – | – | – | –
18 | CCOc1ccccc1Cc1c(N)nc(SCCN2CCN(Cc3cccc(C(F)(F)F)c3)CC2)nc1N | 9.1 | 7.7 | 69.9 | – | – | – | –

Reference: ChEMBL document CHEMBL1134934, “Synthesis and evaluation of 5-HT(2A) and 5-HT(2C) receptor binding affinities of novel pyrimidine derivatives” (Bioorg Med Chem Lett, 2002)
